Tests used:
NS3 = NS3 (Hepatitis C virus, UniProt A3EZJ3); test: Inhibitory potency against HCV NS3 protease; design: species or system Hepacivirus hominis
Huh-7 = test: Cytotoxic concentration against Huh-7 liver cell line; assay type: functional; conditions: Homo sapiens
Cell line = test: inhibitory concentration in luciferase based replicon assay; assay type: functional; conditions: Homo sapiens
[1] = biological target: T1, Neutrophil elastase (Homo sapiens) (UniProt P08246); test: Selectivity for human neutrophil elastase
T1 sequence (whole entry): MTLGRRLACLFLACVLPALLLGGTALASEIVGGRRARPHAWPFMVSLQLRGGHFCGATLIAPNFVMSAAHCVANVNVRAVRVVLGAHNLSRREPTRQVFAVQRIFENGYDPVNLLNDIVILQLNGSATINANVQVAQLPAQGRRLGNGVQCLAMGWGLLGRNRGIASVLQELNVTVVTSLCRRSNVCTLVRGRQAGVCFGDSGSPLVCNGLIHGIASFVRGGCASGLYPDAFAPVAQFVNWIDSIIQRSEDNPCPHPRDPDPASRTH

NS3, sequence (A3EZJ3 whole entry): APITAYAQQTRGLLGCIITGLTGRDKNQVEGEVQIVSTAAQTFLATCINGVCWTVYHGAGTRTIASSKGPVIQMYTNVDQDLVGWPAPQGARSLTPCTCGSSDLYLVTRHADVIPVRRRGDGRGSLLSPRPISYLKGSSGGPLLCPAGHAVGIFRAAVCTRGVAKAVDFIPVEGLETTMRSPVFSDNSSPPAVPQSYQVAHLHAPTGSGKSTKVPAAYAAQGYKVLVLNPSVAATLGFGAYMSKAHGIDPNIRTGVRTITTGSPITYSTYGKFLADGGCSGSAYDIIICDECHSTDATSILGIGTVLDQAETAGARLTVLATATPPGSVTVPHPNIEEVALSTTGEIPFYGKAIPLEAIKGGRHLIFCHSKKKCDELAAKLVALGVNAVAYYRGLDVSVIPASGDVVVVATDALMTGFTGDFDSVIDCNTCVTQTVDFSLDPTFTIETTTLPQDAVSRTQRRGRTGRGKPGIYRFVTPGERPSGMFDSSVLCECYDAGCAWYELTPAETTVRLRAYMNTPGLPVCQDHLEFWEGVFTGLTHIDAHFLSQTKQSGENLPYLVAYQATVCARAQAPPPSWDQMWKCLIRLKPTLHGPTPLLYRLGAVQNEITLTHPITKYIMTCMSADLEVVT

| SMILES | Ki (NS3) [nM] | CC50 (Huh-7) [nM] | IC50 (Cell line) [nM] | Selectivity [1] |
| --- | --- | --- | --- | --- |
| CCCC(NC(=O)[C@@H]1CC(OC(=O)N2CCc3ccccc3C2)CN1C(=O)[C@@H](NC(=O)[C@@H](NC(=O)CCCCC(=O)O)C(C)C)C(C)C)C(=O)C(=O)NC1CC1 (some centres undefined) | 65 | > 50000 | > 50000 | – |
| CCCC(NC(=O)[C@@H]1C2CCCC2CN1C(=O)[C@@H](NC(=O)[C@@H](NC(=O)CCCCc1nnn[nH]1)C(C)C)C(C)C)C(=O)C(=O)Nc1ccccc1 (some centres undefined) | 22 | > 10000 | – | 1180 |
| CCCC(NC(=O)[C@@H]1C2CCCC2CN1C(=O)[C@@H](NC(=O)[C@@H](NC(=O)CCCCc1nnn[nH]1)C(C)C)C(C)C)C(=O)C(=O)N[C@@H](C)c1ccccc1 (stereo in doubt; 12) | 31 | > 50000 | > 50000 | – |
| CCC[C@H](NC(=O)[C@@H]1C2CCCC2CN1C(=O)[C@@H](NC(=O)[C@@H](NC(=O)CCCCc1nn[nH]n1)C(C)C)C(C)C)C(=O)C(=O)NC1CC1 (some centres undefined) | 170 | – | – | – |
| CCCC(NC(=O)[C@@H]1C2CCCC2CN1C(=O)[C@@H](NC(=O)[C@@H](NC(=O)CCCCc1nnn[nH]1)C(C)C)C(C)C)C(=O)C(=O)NC(C)CC (some centres undefined) | 248 | > 50000 | > 50000 | – |
| CCC[C@H](NC(=O)[C@@H]1C2CCCC2CN1C(=O)[C@@H](NC(=O)[C@@H](NC(=O)CCCCc1nn[nH]n1)C(C)C)C(C)C)C(=O)C(=O)NC(=O)CN (some centres undefined) | 82 | – | – | – |
| CCC[C@H](NC(=O)[C@@H]1C2CCCC2CN1C(=O)[C@@H](NC(=O)[C@@H](NC(=O)CCCCc1nnn[nH]1)C(C)C)C(C)C)C(=O)C(=O)NC1CC1 (some centres undefined) | – | > 50000 | > 50000 | 7 |
| CCCC(NC(=O)[C@@H]1CC(OC(=O)N2CCc3ccccc3C2)CN1C(=O)[C@@H](NC(=O)[C@@H](NC(=O)CCCCC(=O)OC)C(C)C)C(C)C)C(=O)C(=O)NC1CC1 (some centres undefined) | 271 | – | – | – |
| CCC[C@H](NC(=O)[C@@H]1C2CCCC2CN1C(=O)[C@@H](NC(=O)[C@@H](NC(=O)Cc1nn[nH]n1)[C@@H](C)CC)C(C)(C)C)C(=O)C(=O)NC1CC1 (some centres undefined) | 3110 | > 50000 | > 50000 | – |
| CCCC(NC(=O)[C@@H]1C2CCCC2CN1C(=O)[C@@H](NC(=O)[C@@H](NC(=O)CCCCc1nnn[nH]1)C(C)C)C(C)C)C(=O)C(=O)N[C@@H](C)c1ccncc1 (some centres undefined) | 112 | – | – | – |
| CCCC(NC(=O)[C@@H]1C2CCCC2CN1C(=O)[C@@H](NC(=O)[C@@H](NC(=O)Cc1nn[nH]n1)C1CCCCC1)C(C)(C)C)C(=O)C(=O)NC1CC1 (some centres undefined) | 30 | > 50000 | > 50000 | – |
| CCCC(NC(=O)[C@@H]1CC(OC(=O)N2CCc3ccccc3C2)CN1C(=O)[C@@H](NC(=O)[C@@H](NC(=O)CCCCC(=O)NC)C(C)C)C(C)C)C(=O)C(=O)NC1CC1 (some centres undefined) | 193 | > 10000 | – | 4 |
| CCC[C@H](NC(=O)[C@@H]1C2CCCC2CN1C(=O)[C@@H](NC(=O)[C@@H](NC(=O)c1cnccn1)C(C)C)C(C)C)C(=O)C(=O)NC1CC1 (some centres undefined) | 123 | > 50000 | 11600 | – |
| CCC[C@H](NC(=O)[C@@H]1C2CCCC2CN1C(=O)[C@@H](NC(=O)[C@@H](NC(=O)Cc1nn[nH]n1)C(C)C)C(C)(C)C)C(=O)C(=O)NC1CC1 (some centres undefined) | 808 | – | – | – |
| CCC(C=O)NC(=O)[C@@H]1CC(OC(=O)c2ccc3ccccc3c2)CN1C(=O)[C@@H](NC(=O)[C@@H](NC(=O)CCCCC(=O)O)C(C)C)C(C)C (some centres undefined) | 110 | – | – | – |
| CCCC(NC(=O)[C@@H]1C2CCCC2CN1C(=O)[C@@H](NC(=O)[C@@H](NC(=O)CCCCc1nnn[nH]1)C(C)C)C(C)C)C(=O)C(=O)N[C@@H](C)c1ccccc1 (stereo in doubt; 13) | 27 | – | – | – |
